Reference: patent US6525087B2, “Use of known agonists of the central cannabinoid receptor CB1” (Bayer Aktiengesellschaft, priority 1997, dated 2003)

Assays:
[1] = Hypothermia, agonism testing; type: in vivo; conditions: rat, i.v.
Protocol: Five minutes after determination of the basal body temperature via an oesophageal temperature probe, the test substance is administered (i.v.). A control group receives only the solvent for the test substances, likewise i.v. The body temperature is measured 7.5, 15, 30 and 60 minutes after i.v. administration. The group size per dose is 5-7 animals (rats).

[2] = Subdural haematoma in the rat (SDH); type: in vivo; conditions: 2 and 4 h after trauma
Protocol: Subdural Haematoma in the Rat (SDH)
Under anaesthesia, the animals' own blood is injected subdurally on one side. An infarct is formed under the haematoma. Substance administration is carried out according to different time schemes and via different administration routes (i.v., i.p.). The infarct size is determined as described in the model of permanent focal ischaemia in the rat (MCA-O).

[3] = Permanent focal cerebral ischaemia in the rat (MCA-O); type: in vivo; conditions: 2 and 4 h after occlusion, infarct size after 7 days
Protocol: Permanent Focal Cerebral Ischaemia in the Rat (MCA-O)
Under isoflurane anaesthesia, the median cerebral artery is exposed on one side and the latter and its side branches are irreversibly sealed by means of electrocoagulation. As a result of the intervention a cerebral infarct is formed. During the operation, the body temperature of the animal is kept at 37° C. After wound closure and wearing off of the anaesthesia, the animals are again released into their cage. The administration of substances is carried out according to different time schemes and via different administration routes (i.v., i.p.) after occlusion. The infarct size is determined after 7 days. To do this, the brain is removed, worked up histologically and the infarct volume is determined with the aid of a computer-assisted analysis system.

glutamate release [4] = assay: Inhibition of glutamate release (rat hippocampus sections, KCl stimulation); type: cell-based; conditions: 75 mM KCl, ratio S2/S1
Protocol: Inhibition of Glutamate Release
After decapitation of a rat, the skull is opened, and the brain is lifted out and cut through along the median fissure. The hippocampus is exposed, separated from the remaining tissue, cut into 350 μm thick sections and incubated at 37° C. in straining vessels for 60 min. Followed by basal value and stimulation 1 with 75 mM KCl (S 1), the sections are incubated with test substance and then the stimulation with KCl and test substance (S2) is repeated. The glutamate concentration of the samples to be investigated is then measured by means of an enzymatic reaction (GLDH) and fluorometric measurement of NADH. By means of a calibration curve, the glutamate content of the sample is determined, and with knowledge of the protein content the glutamate content/mg of protein can be calculated. The ratio S2/S1 is compared; glutamate release inhibitors reduce this ratio in a concentration-dependent manner.

[5] = molecular target: T1, rat cannabinoid receptor CB1 (Rattus norvegicus, UniProt P20272); assay: CB1 luciferase reporter gene test; type: cell-based; conditions: CHOCB1 reporter cell line, forskolin-stimulated
T1 construct: contains an open reading frame of 1419 base pairs which corresponds to a protein of 473 amino acids; expressed in transfected cells; host or cells: CHOluc9 reporter cells, stably transfected with plasmid CMV-RH (pRc/CMV)
Protocol: CB1 Luciferase Reporter Gene Test
This construct (plasmid CMV-RH) was employed for transfection experiments.
Stable Transfection of the CHOluc9 Reporter Cells
CHOluc9 cells were cultured in 50% Dulbecco's modified Eagle Medium/50% F-12 (DMEM/F12) which contained 10% foetal calf serum (FCS). Transfections were prepared in 6-well plates. 7.5 μg of Qiagen-purified CMV-RH plasmid DNA were added per 10^5 cells with the DOTAP transfections system, corresponding to the experimental protocol of the manufacturer (Boehringer Mannheim). Transfected cells were selected with 1 mg/ml G418 and individual clones were obtained by limiting dilution on 96-well plates. Cell lines which express the cannabinoid receptor were identified in the presence of forskolin for the inhibition of reporter gene expression after incubation with the cannabinoid receptor agonist, WIN-55,2121-2. Several stably transfected and subcloned cell lines were further characterized by means of RT-PCR, as described under 1.
Test Optimization and Pharmacological Characterization of the CHOCB1 Reporter Cell Line
The following test protocol was used for pharmacological characterization of the cells and for robot-assisted substance screening: the stock cultures were cultured in 50% Dulbecco's modified Eagle Medium/50% F-12 (DMEM/F12) with 10% FCS at 37° C. under 10% CO2 and in each case split 1:10 after 2 to 3 days. […]

rat cortex membranes = molecular target: T2, rat cortex membranes (Rattus norvegicus, UniProt P20272); assay: Binding studies on rat cortex membranes
T2 construct: Membrane protein is prepared from different tissues or from cells by standard methods; from tissue; host or cells: rat cortex membranes
Protocol: Binding Studies on Rat Cortex Membranes
Membrane protein is prepared from different tissues or from cells by standard methods. Buffer, labelled ligands, DMSO or test substance are pipetted together, then 100 μg of protein are added, and the mixture is well mixed and incubated in a water bath at 30° C. for 60 min. After expiry of the incubation time, the reaction is stopped by addition of ice-cold incubation buffer to each tube. After filtering off, washing is carried out with ¾ ml of incubation buffer. The filters are transferred to minivials and the radioactivity is determined in a liquid scintillation counter.

[6] = J. Neurotrauma 1993, 10, 109; cited from earlier work
cannabinoid receptor = conditions: cited from earlier work
glutamate release [7] = conditions: Brain Res. references; cited from earlier work
[8] = Brain Res. references; cited from earlier work

T1 sequence (P20272 whole entry): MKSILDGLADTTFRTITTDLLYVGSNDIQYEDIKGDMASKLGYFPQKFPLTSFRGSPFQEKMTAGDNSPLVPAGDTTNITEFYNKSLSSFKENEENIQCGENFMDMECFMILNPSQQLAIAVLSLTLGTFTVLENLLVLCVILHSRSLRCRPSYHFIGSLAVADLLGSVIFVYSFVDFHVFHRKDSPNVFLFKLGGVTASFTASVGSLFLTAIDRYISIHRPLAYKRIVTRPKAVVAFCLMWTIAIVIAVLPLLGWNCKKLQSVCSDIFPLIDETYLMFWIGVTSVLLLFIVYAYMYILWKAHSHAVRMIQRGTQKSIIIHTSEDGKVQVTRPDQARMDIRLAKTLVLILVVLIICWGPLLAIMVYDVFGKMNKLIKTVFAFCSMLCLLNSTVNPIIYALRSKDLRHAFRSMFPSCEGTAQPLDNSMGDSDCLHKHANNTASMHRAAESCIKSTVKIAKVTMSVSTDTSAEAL
T2 sequence (P20272 whole entry): as above

For `CCCCCc1cc(O)c2c(c1)OC(C)(C)[C@@H]1CCC(C)=C[C@@H]21` [Example 1], the “Hypothermia ED−1°C. (necessary dose to achieve a maximum temperature drop of 1° C.)” value [1] was 0.8 mg/kg i.v, the “% reduction in the infarct volume” value ([2]; 0.3 mg/kg i.v. bolus directly) was 50% and the “% reduction in the infarct volume” value ([3]; 1.0 mg/kg i.v. bolus directly) was 31%. For the same compound, the “Inhibition of glutamate release, % Inhibition @ 1 μM” value (glutamate release [4]) was “no effect”.
In the case of `CCCCCCC(C)(C)c1cc(O)c2c(c1)OC(C)(C)[C@@H]1CC=C(CO)C[C@@H]21` [Example 5], the “Hypothermia ED−1°C. (necessary dose to achieve a maximum temperature drop of 1° C.)” value [1] is reported as 0.01 mg/kg i.v, the “% reduction in the infarct volume” value ([2]; 0.001 mg/kg i.v. bolus directly) is reported as 58% and the IC50 [5] is reported as 480 pM. The “% reduction in the infarct volume” value ([3]; 0.01 mg/kg i.v. bolus directly) was 48%, the inhibition at 1 µM (glutamate release [4]) was 20% and the Ki (rat cortex membranes) was 1000 pM.
In the case of `CCCCCCC(C)(C)c1ccc([C@@H]2C[C@H](O)CC[C@H]2CCCO)c(O)c1` [Example 15], the “Hypothermia ED−1°C. (necessary dose to achieve a maximum temperature drop of 1° C.)” value [1] is reported as 0.03 mg/kg i.v.
For `Cc1c(C(=O)c2cccc3ccccc23)c2cccc3c2n1[C@H](CN1CCOCC1)CO3` [Example 18], the “Hypothermia ED−1°C. (necessary dose to achieve a maximum temperature drop of 1° C.)” value [1] was 0.2 mg/kg i.v, the “% reduction in the infarct volume” value ([3]; 0.03 mg/kg i.v. bolus directly) was 20% and the inhibition at 1 µM (glutamate release [4]) was 50%.
For `CCCCCCC(C)(C)c1cc(O)c2c(c1)OC(C)(C)[C@@H]1CC=C(CO)C[C@@H]21` [HU210], the “neuroprotection in a craniocerebral trauma model” value [6] is given as “non-neuroprotective”.
In the case of `CCCCCCC(C)(C)c1cc(O)c2c(c1)OC(C)(C)[C@H]1CC=C(CO)C[C@H]21` [HU-211], the “activity on the cannabinoid receptor” value (cannabinoid receptor) is given as “inactive”.
In the case of `O=C(O)c1cc(=O)c2ccccc2[nH]1` [kynurenic acid], the “inhibition of glutamate release in vitro” value (glutamate release [7]) is given as “markedly inhibit glutamate release”.
For `Cn1c(=O)c2[nH]cnc2n(C)c1=O` [theophylline], the “neuroprotective action in vivo” value [8] is listed as “no neuroprotective action” and the “inhibition of glutamate release in vitro” value (glutamate release [7]) is listed as “markedly inhibit glutamate release”.
